Key:
[1] = system: VCaP cells; assay: Cellular growth inhibition assay for VCaP cells, CellTiter-Glo; assay type: cell-based, human; settings: Homo sapiens, VCaP, 72 h, 72 hours treatment, CellTiter-Glo 2.0
Description: VCaP cells were purchased from American Type Cell Culture (ATCC Cat #CRL2876) and then seeded on poly-D-lysine coated, black clear-bottom 384-well plates at 5000/well in 25 μL Dulbecco's Modified Eagle Medium (DMEM) supplemented with 10% w/w Fetal bovine serum (FBS) and 1% w/w Pen-Strep. Pen-Strep is a commercially available mixture of penicillin G and streptomycin, which is used in mammalian cell culture media to prevent bacterial contamination. Dulbecco's Modified Eagle Medium (DMEM) supplemented with 10% w/w fetal bovine serum (FBS) and 1% w/w Pen-Strep is herein referred to as Treatment Medium. Following seeding of cells in the plates, the plates were spun at 300×g for 30 seconds, then equilibrated to room temperature for 30 minutes, and then deposited in a humidified tissue culture incubator maintained at 37° C. with 5% CO2.
At 24 hours after seeding of the cells, dilutions of test compound were prepared in DMSO and dissolved in Treatment Medium, to achieve a final DMSO concentration of 0.5% w/w, thereby providing the Test Compound Solution. A 25 μL aliquot of the Test Compound Solution was added to cells in the well plates. An equal volume of a solution containing DMSO and Treatment Medium was used as a negative control. Following treatment of cells with Test Compound Solution or said equal volume of a solution containing DMSO and Treatment Medium, the plates were spun at 300×g for 30 seconds, and then left in an incubator for 72 hours.
At the end of the treatment duration, cell viability was quantified with CellTiter-Glo 2.0 reagent (Promega Cat #G9243). For this purpose, plates were equilibrated to room temperature for 30 minutes, and then 25 μL of CellTiter-Glo 2.0 reagent was added to cells in the plate wells. Plates were then agitated on a shaker for two minutes at 500 rpm and subsequently incubated at room temperature for 10 minutes. Following incubation, the plates were spun at 3000×g for 30 seconds, then sealed with an optical adhesive cover, and luminescence readings were measured with an EnVision Plate Reader.
Data was normalized using zero luminescence for baseline. A four-parameter non-linear regression curve fit was applied to dose-response data in GraphPad Prism data analysis software to determine the half-maximal growth inhibitory concentration (GI50) for each test compound.

[2] = system: T-Rex 293 cell line SC3 cells having increased expression of androgen receptor protein due to exposure to doxycycline; assay: Cellular growth inhibition, T-Rex 293 SC3 cells with doxycycline (androgen receptor induced), CellTiter-Glo; assay type: cell-based; settings: 72 h, T-Rex 293 SC3 cells with 10 ng/mL doxycycline (increased androgen receptor expression)
Description: (§1) The following types of cells were prepared for this experiment: (i) a T-Rex 293 cell line having increased expression of androgen receptor protein due to exposure to doxycycline and (ii) a T-Rex 293 cell line lacking increased expression of androgen receptor protein. Ability of the test compounds to inhibit proliferation of the foregoing cell types was evaluated according to the procedures set forth below.
(§2) The doxycycline-inducible androgen receptor protein expressing cell line was established using the following protocol: T-Rex 293 cells were purchased from Invitrogen (Cat #R71007) and transfected using Lipofectamine 2000 with the wild-type androgen receptor protein sequence cloned into the pcDNA4/TO vector. Transfected cells were selected using 400 μg/mL Zeocin (Invitrogen Cat #R25001). Following selection, single clones were raised and maintained in Dulbecco's Modified Eagle Medium (DMEM) supplemented with 10% w/w Tetracycline-free fetal bovine serum (FBS) and 250 μg/mL Zeocin. Clones were analyzed for expression of androgen receptor protein in the presence and absence of 10 ng/mL doxycycline (Sigma Cat #D9891), and a single doxycycline-inducible clone (hereinafter “SC3”) was selected for use in downstream assays.
(§3) The SC3 cells were seeded on poly-D-lysine coated, black clear-bottom 384-well plates at 2500/well, in 25 μL Phenol Red Free Dulbecco's Modified Eagle Medium (DMEM) supplemented with 10% w/w charcoal-dextran treated fetal bovine serum (FBS) and 1% w/w pen-strep, with or without 10 ng/mL doxycycline. Pen-Strep is a commercially available mixture of penicillin G and streptomycin, which is used in mammalian cell culture media to prevent bacterial contamination. Phenol Red Free Dulbecco's Modified Eagle Medium (DMEM) supplemented with 10% w/w charcoal-dextran treated fetal bovine serum (FBS) and 1% w/w pen-strep, with or without 10 ng/mL doxycycline is herein referred to as Treatment Medium. Following seeding of cells in the plates, the plates were spun at 300×g for 30 seconds, then equilibrated to room temperature for 30 minutes, and then deposited in a humidified tissue culture incubator maintained at 37° C. with 5% CO2.
(§4) At 24 hours after seeding of the cells, dilutions of test compound were prepared in DMSO and dissolved in Treatment Medium, to achieve a final DMSO concentration of 0.5% w/w, thereby providing the Test Compound Solution. A 25 μL aliquot of the Test Compound Solution was added to cells in the well plates. An equal volume of a solution containing DMSO and Treatment Medium was used as a negative control. Following treatment of cells with Test Compound Solution or said equal volume of a solution containing DMSO and Treatment Medium, the plates were spun at 300×g for 30 seconds, and then left in an incubator for 72 hours. At the end of the treatment duration, cell viability was quantified with CellTiter-Glo 2.0 reagent (Promega Cat #G9243). For this purpose, plates were equilibrated to room temperature for 30 minutes, and then 25 μL of CellTiter-Glo 2.0 reagent was added to cells in the plate wells. Plates were then agitated on a shaker for two minutes at 500 rpm and subsequently incubated at room temperature for 10 minutes. Following incubation, the plates were spun at 3000×g for 30 seconds, then sealed with an optical adhesive cover, and luminescence readings were measured with an EnVision Plate Reader. Data was normalized using zero luminescence for baseline. A four-parameter non-linear regression curve fit was applied to dose-response data in GraphPad Prism data analysis software to determine the half-maximal growth inhibitory concentration (GI50) for each test compound.

[3] = system: T-Rex 293 cell line SC3 cells lacking increased expression of androgen receptor protein; assay: Cellular growth inhibition, T-Rex 293 SC3 cells without doxycycline, CellTiter-Glo; assay type: cell-based; settings: 72 h, T-Rex 293 SC3 cells not exposed to doxycycline, CellTiter-Glo 2.0
Description: as §1, §2, §3, §4

| GI50 [1] [nM] | Compound | GI50 [2] [nM] | GI50 [3] [nM] |
| --- | --- | --- | --- |
| < 500 | Cc1sc2c(c1C)C(c1ccc(Cl)cc1)=N[C@@H](CC(=O)NCCOCCOCCN(C)c1ncc(C(=O)N[C@H]3C(C)(C)[C@H](Oc4ccc(C#N)c(Cl)c4)C3(C)C)cn1)c1nnc(C)n1-2 [Compound I-2, N-[3-(3-chloro-4-cyano-phenoxy)-2,2,4,4-tetramethyl-cyclobutyl]-2-[2-[2-[2-[[2-[(9S)-7-(4-chlorophenyl)-4,5,13-trimethyl-3-thia-1,8,11,12-tetrazatricyclo[8.3.0.02,6]trideca-2(6),4,7,10,12-pentaen-9-yl]acetyl]amino]ethoxy]ethoxy]ethyl-methylamino]pyrimidine-5-carboxamide] | < 500 | 1500 to 3000 |
| < 500 | Cc1sc2c(c1C)C(c1ccc(Cl)cc1)=N[C@@H](CC(=O)NCCCCCCOC1CCN(c3ncc(C(=O)N[C@H]4C(C)(C)[C@H](Oc5ccc(C#N)c(Cl)c5)C4(C)C)cn3)CC1)c1nnc(C)n1-2 [Compound I-23] | < 500 | < 500 |
| > 3000 | Cc1sc2c(c1C)C(c1ccc(Cl)cc1)=N[C@@H](CC(=O)NCCCCCCCCOC1CCN(c3ncc(C(=O)N[C@H]4C(C)(C)[C@H](Oc5ccc(C#N)c(Cl)c5)C4(C)C)cn3)CC1)c1nnc(C)n1-2 [Compound I-25] | < 500 | > 3000 |
| < 500 | Cc1sc2c(c1C)C(c1ccc(Cl)cc1)=NC(CC(=O)NCCOCCCCOC1CCN(c3ncc(C(=O)N[C@H]4C(C)(C)[C@H](Oc5ccc(C#N)c(Cl)c5)C4(C)C)cn3)CC1)c1nnc(C)n1-2 (stereo partly drawn) [Compound I-30] | < 500 | < 500 |
| < 500 | Cc1sc2c(c1C)C(c1ccc(Cl)cc1)=N[C@@H](CC(=O)NCCCOCCCCOC1CCN(c3ncc(C(=O)N[C@H]4C(C)(C)[C@H](Oc5ccc(C#N)c(Cl)c5)C4(C)C)cn3)CC1)c1nnc(C)n1-2 [Compound I-33] | < 500 | < 500 |
| 1500 to 3000 | CCNC(=O)C[C@@H]1N=C(c2ccc(OCCCCCCOC3CCN(c4ncc(C(=O)N[C@H]5C(C)(C)[C@H](Oc6ccc(C#N)c(Cl)c6)C5(C)C)cn4)CC3)cc2)c2c(sc(C)c2C)-n2c(C)nnc21 [Compound I-63] | < 500 | 500 to 1500 |
| 500 to 1500 | CCNC(=O)C[C@@H]1N=C(c2ccc(OCCOCCOC3CCN(c4ncc(C(=O)N[C@H]5C(C)(C)[C@H](Oc6ccc(C#N)c(Cl)c6)C5(C)C)cn4)CC3)cc2F)c2c(sc(C)c2C)-n2c(C)nnc21 [Compound I-77] | < 500 | 500 to 1500 |
| 1500 to 3000 | CCNC(=O)C[C@@H]1N=C(c2ccc(CCCCCOC3CCN(c4ncc(C(=O)N[C@H]5C(C)(C)[C@H](Oc6ccc(C#N)c(Cl)c6)C5(C)C)cn4)CC3)cc2)c2c(sc(C)c2C)-n2c(C)nnc21 [Compound I-89] | < 500 | 500 to 1500 |
| > 3000 | CCNC(=O)C[C@@H]1N=C(c2ccc(CCCCCCOC3CCN(c4ncc(C(=O)N[C@H]5C(C)(C)[C@H](Oc6ccc(C#N)c(Cl)c6)C5(C)C)cn4)CC3)cc2)c2c(sc(C)c2C)-n2c(C)nnc21 [Compound I-90] | < 500 | > 3000 |

More lines, now with the values behind:

| Compound | GI50 [1] [nM] | GI50 [2] [nM] | GI50 [3] [nM] |
| --- | --- | --- | --- |
| Cc1sc2c(c1C)C(c1ccc(Cl)cc1)=N[C@@H](CC(=O)NCCCOCCOC1CCN(c3ncc(C(=O)N[C@H]4C(C)(C)[C@H](Oc5ccc(C#N)c(Cl)c5)C4(C)C)cn3)CC1)c1nnc(C)n1-2 [Compound I-26] | < 500 | < 500 | 500 to 1500 |
| Cc1sc2c(c1C)C(c1ccc(Cl)cc1)=N[C@@H](CC(=O)NCCOCCCOC1CCN(c3ncc(C(=O)N[C@H]4C(C)(C)[C@H](Oc5ccc(C#N)c(Cl)c5)C4(C)C)cn3)CC1)c1nnc(C)n1-2 [Compound I-27] | < 500 | < 500 | 500 to 1500 |
| Cc1sc2c(c1C)C(c1ccc(Cl)cc1)=N[C@@H](CC(=O)NCCCOCCCOC1CCN(c3ncc(C(=O)N[C@H]4C(C)(C)[C@H](Oc5ccc(C#N)c(Cl)c5)C4(C)C)cn3)CC1)c1nnc(C)n1-2 [Compound I-29] | < 500 | < 500 | 500 to 1500 |
| Cc1sc2c(c1C)C(c1ccc(Cl)cc1)=N[C@@H](CC(=O)NCCOCCCCCOC1CCN(c3ncc(C(=O)N[C@H]4C(C)(C)[C@H](Oc5ccc(C#N)c(Cl)c5)C4(C)C)cn3)CC1)c1nnc(C)n1-2 [Compound I-34] | < 500 | < 500 | < 500 |
| Cc1sc2c(c1C)C(c1ccc(Cl)cc1)=N[C@@H](CC(=O)NCCCCN1CCN(CC3CCN(c4ncc(C(=O)N[C@H]5C(C)(C)[C@H](Oc6ccc(C#N)c(Cl)c6)C5(C)C)cn4)CC3)CC1)c1nnc(C)n1-2 [Compound I-37, N-((1r,3r)-3-(3-chloro-4-cyanophenoxy)-2,2,4,4-tetramethylcyclobutyl)-2-(4-((4-(4-(2-((S)-4-(4-chlorophenyl)-2,3,9-trimethyl-6H-thieno[3,2-f][1,2,4]triazolo[4,3-a][1,4]diazepin-6-yl)acetamido)butyl)piperazin-1-yl)methyl)piperidin-1-yl)pyrimidine-5-carboxamide] | < 500 | < 500 | 500 to 1500 |
| CCNC(=O)C[C@@H]1N=C(c2ccc(OCCCOC3CCN(c4ncc(C(=O)N[C@H]5C(C)(C)[C@H](Oc6ccc(C#N)c(Cl)c6)C5(C)C)cn4)CC3)cc2)c2c(sc(C)c2C)-n2c(C)nnc21 [Compound I-62] | < 500 | < 500 | < 500 |
| CCNC(=O)C[C@@H]1N=C(c2ccc(OCCCCOC3CCN(c4ncc(C(=O)NC5C(C)(C)C(Oc6ccc(C#N)c(Cl)c6)C5(C)C)cn4)CC3)cc2)c2c(sc(C)c2C)-n2c(C)nnc21 (stereo partly drawn) [Compound I-64] | < 500 | < 500 | < 500 |
| CCNC(=O)C[C@@H]1N=C(c2ccc(OCCOCCOC3CCN(c4ncc(C(=O)N[C@H]5C(C)(C)[C@H](Oc6ccc(C#N)c(Cl)c6)C5(C)C)cn4)CC3)c(F)c2F)c2c(sc(C)c2C)-n2c(C)nnc21 [Compound I-74] | < 500 | < 500 | 500 to 1500 |
| CCNC(=O)C[C@@H]1N=C(c2ccc(OCCOCCOC3CCN(c4ncc(C(=O)N[C@H]5C(C)(C)[C@H](Oc6ccc(C#N)c(Cl)c6)C5(C)C)cn4)CC3)c(F)c2)c2c(sc(C)c2C)-n2c(C)nnc21 [Compound I-78] | 1500 to 3000 | < 500 | 1500 to 3000 |
